Test results reported in patent US8785457B2 (Cellzome Limited, priority 2009, dated 2014).
Like-named read-outs stand apart in the source and are kept apart here.

Tests used:
[1] = biological target: T1, DNA-dependent protein kinase (DNA-PK) (Homo sapiens, UniProt P78527); assay: kinobeads assay, DNA-PK; format: binding
T1 construct: endogenous in cells; host or cells: Jurkat, clone E6-1 (ATCC TIB-152) cell lysate
Summary of the method: (§1)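 Competitive binding in Jurkat cell lysate (5 mg/mL protein) against beads carrying an immobilized phenylmorpholin-chromen ligand, in DP buffer pH 7.4 with NP40, DTT and NaF. Bead-bound kinases were eluted and quantified by antibody dot blot with infrared detection, and IC50 was taken from dose-response curves of a 1:3 dilution series.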

[2] = tested on: S6RP serine-240/244 phosphorylation; assay: In vitro Phospho-S6 cellular assay (pS6RP S240/244) in HEK293T/17 cells; format: cell-based; settings: Homo sapiens, 2 hours, read-out: pS6 IC50
Text: Activation of mTOR signaling results in phosphorylation of several downstream targets. In cells, mTOR exists in two different protein complexes. The mTOR Complex-1 (mTORC1) phosphorylates and activates S6 Kinase 1 (S6K1) and S6 Kinase 2 (S6K2) (also known as p70S6K) which then phosphorylate S6 Ribosomal Protein (S6RP) (also known as RPS6)3. S6RP is phosphorylated on serine 235, serine 236, serine 240 and serine 244 by both pS6K1 and pS6K2. The mTOR Complex-2 (mTORC2) phosphorylates AKT on serine 473 which activates the AKT signaling pathway.
The assay measures a test compound's inhibition of S6RP serine-240/244 phosphorylation and inhibition of Akt serine-473 phosphorylation in human embryonic kidney derived HEK293T/17 cells (ATCC CRL-11268).
The HEK293T/17 cell line is maintained in DMEM media (Invitrogen catalogue number 41965-039) supplemented with 10% FCS at 37° C. in a 5% CO2 humidified incubator.
Cells are seeded in 96-well plates at 40,000 cells/well (pS6RP S240/244 assay) or 80,000 cells/well (pAkt S473 assay) in 90 μl growth media (DMEM, 2% FCS). Plates are incubated for 1 hour in a humidified incubator to allow the cells to adhere. Cells are treated with 8 concentrations of test compounds or DMSO alone for controls (final DMSO concentration 0.1%) and incubated at 37° C. for 2 hours. Then 20 μl of 5× concentrated lysis buffer (750 mM NaCl, 100 mM Tris pH7.4, 5 mM ADTA, 5 mM EGTA, 5% Triton X-100) is added, plates are sealed and incubated for 15 minutes at 4° C. with gentle shaking. After cell lysis, 25 μl cell lysate is transferred to a MesoScale plate coated with an antibody to pS6RP Ser240/244 (MesoScale Discovery K150DGD-3) or an antibody to pAkt Ser 473 (MesoScale Discovery K151DGD-3). Plates have been blocked before by incubation with 150 μl MesoScale Discovery Blocking Solution-A for 1 hour at room temperature followed by washing with 150 μl 1× Tris wash buffer per well. After the transfer of the cell lysate to the MSD plate, the pS6RP (or pAkt) protein is captured on the coated antibody by incubation at room temperature for 1 hour with gentle shaking. After the capture step the plate is washed three times with 150 μl of 1× Tris wash buffer per well. Then 25 μl detection antibody conjugated with a Sulfo-Tag is added and incubated for 1 hour at room temperature with gentle shaking. Subsequently the antibody solution is removed and the plate is washed 3 times with 150 μl×Tris wash buffer per well and 150 μl Read buffer is added. The plates are analysed on a MSD 2400 Plate Reader (MesoScale Discovery). Data analysis is performed using nonlinear regression for a sigmoidal dose-response with a variable slope.

PI3K delta (PI3 Kd) = biological target: T2, PI3K delta (PI3 Kd) (Homo sapiens, UniProt O00329); assay: kinobeads assay, PI3K delta; format: binding
T2 construct: endogenous in cells; host or cells: Jurkat, clone E6-1 (ATCC TIB-152) cell lysate
T2 sequence (O00329 whole entry): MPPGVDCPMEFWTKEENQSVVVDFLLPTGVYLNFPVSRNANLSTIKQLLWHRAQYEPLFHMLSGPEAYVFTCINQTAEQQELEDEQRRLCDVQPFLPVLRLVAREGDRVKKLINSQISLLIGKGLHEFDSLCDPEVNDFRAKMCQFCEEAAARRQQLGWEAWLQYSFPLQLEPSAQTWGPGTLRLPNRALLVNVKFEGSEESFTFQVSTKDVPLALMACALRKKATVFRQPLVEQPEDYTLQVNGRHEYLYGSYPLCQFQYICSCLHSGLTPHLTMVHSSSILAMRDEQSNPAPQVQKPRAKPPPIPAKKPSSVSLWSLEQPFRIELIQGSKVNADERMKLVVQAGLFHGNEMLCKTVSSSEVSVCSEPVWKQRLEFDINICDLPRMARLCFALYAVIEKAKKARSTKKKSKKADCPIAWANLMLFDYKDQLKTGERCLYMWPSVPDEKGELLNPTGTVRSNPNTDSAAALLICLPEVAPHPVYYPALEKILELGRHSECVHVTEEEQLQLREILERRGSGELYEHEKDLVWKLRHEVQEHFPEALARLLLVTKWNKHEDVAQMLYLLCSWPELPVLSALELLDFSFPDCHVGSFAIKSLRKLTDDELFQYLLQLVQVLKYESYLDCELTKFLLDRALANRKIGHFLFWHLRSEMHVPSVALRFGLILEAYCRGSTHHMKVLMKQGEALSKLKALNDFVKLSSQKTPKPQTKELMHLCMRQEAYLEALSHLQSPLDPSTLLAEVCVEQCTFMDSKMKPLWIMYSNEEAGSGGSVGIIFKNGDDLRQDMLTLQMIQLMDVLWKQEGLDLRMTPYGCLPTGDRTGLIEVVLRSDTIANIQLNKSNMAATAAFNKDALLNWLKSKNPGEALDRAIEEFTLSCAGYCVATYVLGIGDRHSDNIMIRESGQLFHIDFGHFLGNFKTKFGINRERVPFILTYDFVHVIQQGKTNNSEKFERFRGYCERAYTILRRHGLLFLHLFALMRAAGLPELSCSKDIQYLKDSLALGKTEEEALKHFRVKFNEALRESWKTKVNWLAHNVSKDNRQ
T2 sequence (P27986 whole entry partner): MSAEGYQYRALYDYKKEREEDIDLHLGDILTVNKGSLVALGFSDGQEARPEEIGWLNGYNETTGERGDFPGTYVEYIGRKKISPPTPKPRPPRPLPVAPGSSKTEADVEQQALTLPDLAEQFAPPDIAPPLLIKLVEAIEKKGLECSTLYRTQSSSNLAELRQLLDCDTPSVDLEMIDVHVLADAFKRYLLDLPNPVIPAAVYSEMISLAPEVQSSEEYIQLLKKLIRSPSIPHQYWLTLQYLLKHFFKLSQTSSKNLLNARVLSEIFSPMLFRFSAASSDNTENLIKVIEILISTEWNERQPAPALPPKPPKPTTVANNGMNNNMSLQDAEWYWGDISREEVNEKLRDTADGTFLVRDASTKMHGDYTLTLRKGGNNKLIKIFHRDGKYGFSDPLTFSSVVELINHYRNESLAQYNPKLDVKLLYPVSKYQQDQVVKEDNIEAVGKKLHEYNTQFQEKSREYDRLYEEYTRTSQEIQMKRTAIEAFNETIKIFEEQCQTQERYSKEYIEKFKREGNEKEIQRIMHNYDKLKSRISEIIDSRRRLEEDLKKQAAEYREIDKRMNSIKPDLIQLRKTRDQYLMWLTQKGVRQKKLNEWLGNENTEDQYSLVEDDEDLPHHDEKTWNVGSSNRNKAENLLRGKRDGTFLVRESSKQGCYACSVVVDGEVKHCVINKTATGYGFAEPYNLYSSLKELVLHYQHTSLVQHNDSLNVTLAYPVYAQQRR
Summary of the method: as §1

PI3Kalpha (PI3Ka) = biological target: T3, PI3Kalpha (PI3Ka) (Homo sapiens, UniProt P42336); assay: kinobeads assay, PI3Kalpha; format: binding
T3 construct: endogenous in cells; host or cells: cell lysate
T3 sequence (P42336 whole entry): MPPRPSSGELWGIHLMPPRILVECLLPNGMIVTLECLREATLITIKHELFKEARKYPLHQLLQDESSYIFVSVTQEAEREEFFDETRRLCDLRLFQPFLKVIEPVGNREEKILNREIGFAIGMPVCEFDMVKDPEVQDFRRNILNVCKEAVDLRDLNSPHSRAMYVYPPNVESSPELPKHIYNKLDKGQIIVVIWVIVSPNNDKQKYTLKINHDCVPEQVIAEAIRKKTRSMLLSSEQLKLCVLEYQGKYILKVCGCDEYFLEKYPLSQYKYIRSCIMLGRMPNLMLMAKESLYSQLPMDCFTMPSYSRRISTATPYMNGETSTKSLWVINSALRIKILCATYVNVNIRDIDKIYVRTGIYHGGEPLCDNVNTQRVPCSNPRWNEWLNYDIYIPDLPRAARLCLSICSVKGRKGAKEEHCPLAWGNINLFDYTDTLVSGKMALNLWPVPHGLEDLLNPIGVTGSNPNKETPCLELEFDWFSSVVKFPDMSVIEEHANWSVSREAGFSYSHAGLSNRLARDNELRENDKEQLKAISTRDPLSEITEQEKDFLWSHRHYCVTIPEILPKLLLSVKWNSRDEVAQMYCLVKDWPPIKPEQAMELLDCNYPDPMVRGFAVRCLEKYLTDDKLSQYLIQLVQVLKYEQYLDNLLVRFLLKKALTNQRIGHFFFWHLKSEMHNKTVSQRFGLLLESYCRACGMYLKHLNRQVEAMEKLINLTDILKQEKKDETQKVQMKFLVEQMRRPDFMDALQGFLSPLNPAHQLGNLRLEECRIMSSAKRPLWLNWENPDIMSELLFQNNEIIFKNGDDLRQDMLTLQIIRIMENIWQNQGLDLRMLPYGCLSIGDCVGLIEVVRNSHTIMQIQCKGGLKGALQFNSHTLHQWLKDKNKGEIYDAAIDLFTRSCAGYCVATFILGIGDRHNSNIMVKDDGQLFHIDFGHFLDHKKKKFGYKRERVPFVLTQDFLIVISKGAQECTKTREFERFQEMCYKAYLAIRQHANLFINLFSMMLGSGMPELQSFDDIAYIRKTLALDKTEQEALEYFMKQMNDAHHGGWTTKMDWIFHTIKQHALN
T3 sequence (P27986 whole entry partner): as the sequence (P27986 whole entry partner) above
Summary of the method: (§2)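 IC50 values derive from per-kinase dose-response curves in a lysate-based competition binding format. Kinases retained on phenylmorpholin-chromen beads in the presence of compound were eluted and detected by multiplexed immunodetection.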

PI3 Kbeta (PI3 Kb) = biological target: T4, PI3 Kbeta (PI3 Kb) (Homo sapiens, UniProt P42338); assay: kinobeads assay, PI3Kbeta; format: binding
T4 construct: endogenous in cells; host or cells: cell lysate
T4 sequence (P42338 whole entry): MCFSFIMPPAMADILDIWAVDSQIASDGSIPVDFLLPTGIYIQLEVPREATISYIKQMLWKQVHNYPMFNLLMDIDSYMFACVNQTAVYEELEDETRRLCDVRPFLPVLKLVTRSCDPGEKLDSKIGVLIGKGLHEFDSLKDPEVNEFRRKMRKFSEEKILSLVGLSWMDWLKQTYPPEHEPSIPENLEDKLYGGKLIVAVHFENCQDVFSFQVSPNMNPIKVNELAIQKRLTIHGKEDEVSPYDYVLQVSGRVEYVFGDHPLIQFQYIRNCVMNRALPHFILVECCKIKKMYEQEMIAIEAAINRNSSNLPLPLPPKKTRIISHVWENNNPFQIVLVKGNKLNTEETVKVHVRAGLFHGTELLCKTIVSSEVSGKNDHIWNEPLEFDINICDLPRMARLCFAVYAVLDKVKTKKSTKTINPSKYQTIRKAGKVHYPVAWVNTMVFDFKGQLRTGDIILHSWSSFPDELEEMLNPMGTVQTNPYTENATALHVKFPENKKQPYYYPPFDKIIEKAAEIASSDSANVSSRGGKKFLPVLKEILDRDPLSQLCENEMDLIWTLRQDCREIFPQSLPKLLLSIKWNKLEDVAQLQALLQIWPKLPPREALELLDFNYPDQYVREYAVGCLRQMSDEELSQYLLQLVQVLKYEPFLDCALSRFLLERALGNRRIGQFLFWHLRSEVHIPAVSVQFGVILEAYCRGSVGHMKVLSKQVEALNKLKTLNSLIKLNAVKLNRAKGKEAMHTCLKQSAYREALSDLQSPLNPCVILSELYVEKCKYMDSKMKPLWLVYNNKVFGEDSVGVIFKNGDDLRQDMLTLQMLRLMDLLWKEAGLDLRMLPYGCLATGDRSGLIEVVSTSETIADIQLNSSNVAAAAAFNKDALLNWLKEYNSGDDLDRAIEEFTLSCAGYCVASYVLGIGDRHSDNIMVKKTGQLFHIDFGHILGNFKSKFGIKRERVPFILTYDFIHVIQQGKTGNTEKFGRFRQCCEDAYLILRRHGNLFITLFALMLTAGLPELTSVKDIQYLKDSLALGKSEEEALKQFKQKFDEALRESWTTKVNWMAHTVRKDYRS
T4 sequence (P27986 whole entry partner): as the sequence (P27986 whole entry partner) above
Summary of the method: as §2

PI3 Kgamma (PI3 Kg) = biological target: T5, PI3 Kgamma (PI3 Kg) (Homo sapiens, UniProt P48736); assay: kinobeads assay, PI3Kgamma; format: binding
T5 construct: endogenous in cells; host or cells: cell lysate
T5 sequence (P48736 whole entry): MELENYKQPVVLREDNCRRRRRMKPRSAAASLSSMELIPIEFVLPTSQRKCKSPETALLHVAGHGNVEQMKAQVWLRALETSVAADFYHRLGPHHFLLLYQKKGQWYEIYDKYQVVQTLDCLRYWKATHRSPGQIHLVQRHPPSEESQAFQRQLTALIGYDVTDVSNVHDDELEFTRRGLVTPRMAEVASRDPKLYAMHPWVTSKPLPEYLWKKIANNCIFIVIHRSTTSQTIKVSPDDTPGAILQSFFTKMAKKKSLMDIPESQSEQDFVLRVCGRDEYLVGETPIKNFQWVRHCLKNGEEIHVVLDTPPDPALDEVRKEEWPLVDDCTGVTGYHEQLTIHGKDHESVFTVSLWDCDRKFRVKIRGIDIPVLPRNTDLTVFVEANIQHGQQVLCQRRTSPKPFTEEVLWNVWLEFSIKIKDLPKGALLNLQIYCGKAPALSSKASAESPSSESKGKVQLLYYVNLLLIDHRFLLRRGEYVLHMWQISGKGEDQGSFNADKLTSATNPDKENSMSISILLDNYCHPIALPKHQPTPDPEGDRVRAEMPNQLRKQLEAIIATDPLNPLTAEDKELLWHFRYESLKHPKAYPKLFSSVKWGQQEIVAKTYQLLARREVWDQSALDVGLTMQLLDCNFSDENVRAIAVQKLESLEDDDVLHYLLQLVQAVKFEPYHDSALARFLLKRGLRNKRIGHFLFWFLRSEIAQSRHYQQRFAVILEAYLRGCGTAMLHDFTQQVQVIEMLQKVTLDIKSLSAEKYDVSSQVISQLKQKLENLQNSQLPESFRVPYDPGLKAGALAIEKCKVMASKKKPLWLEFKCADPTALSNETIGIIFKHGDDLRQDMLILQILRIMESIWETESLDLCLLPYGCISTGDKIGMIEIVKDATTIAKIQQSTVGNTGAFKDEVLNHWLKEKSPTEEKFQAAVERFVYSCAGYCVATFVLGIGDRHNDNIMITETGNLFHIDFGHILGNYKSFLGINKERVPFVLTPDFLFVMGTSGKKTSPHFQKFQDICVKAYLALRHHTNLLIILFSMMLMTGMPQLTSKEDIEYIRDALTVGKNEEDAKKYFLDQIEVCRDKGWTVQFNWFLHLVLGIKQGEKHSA
Summary of the method: as §2

mTOR = biological target: T6, mTOR (Homo sapiens, UniProt P42345); assay: mTOR kinobeads assay (competitive binding in Jurkat cell lysate, immunodetection); settings: Further Kinobeads Data; read-out: mTor
T6 construct: endogenous in cells; host or cells: Jurkat, clone E6-1 (ATCC TIB-152) cell lysate
Summary of the method: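 IC50 derived from dose-response curves of mTOR captured on immobilized phenylmorpholin-chromen beads, detected by antibody dot blot with infrared fluorescence.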

[3] = kinobeads assay, Table 4, read-out: Inhibition values (IC50) DNA-PK
[4] = kinobeads assay, Table 6, read-out: Inhibition values (IC50) DNAPK
[5] = kinobeads assay, Table 4, read-out: Inhibition values (IC50) PI3Kd
[6] = kinobeads assay, Table 6, read-out: Inhibition values (IC50) PI3Kd
[7] = kinobeads assay, Table 6, read-out: Inhibition values (IC50) PI3Kb
[8] = kinobeads assay, Table 6, read-out: Inhibition values (IC50) PI3Kg
[9] = Further Kinobeads Data, read-out: DNAPK
[10] = Further Kinobeads Data, read-out: PI3Kb
[11] = Further Kinobeads Data, read-out: PI3Kd
[12] = Further Kinobeads Data, read-out: PI3Kg

IC50 (mTOR) [µM]	IC50 (PI3Kalpha (PI3Ka); Further Kinobeads Data, read-out: PI3Ka) [µM]	IC50 [1, 9] [µM]	IC50 (PI3 Kbeta (PI3 Kb); [10]) [µM]	IC50 (PI3K delta (PI3 Kd); [11]) [µM]	IC50 (PI3 Kgamma (PI3 Kg); [12]) [µM]	PI3Ka (PI3Kalpha (PI3Ka); Further Kinobeads Data)	SMILES	IC50 [1, 3] [µM]	IC50 [1, 4] [µM]	IC50 [2] [µM]	IC50 (PI3K delta (PI3 Kd); [5]) [µM]	IC50 (PI3K delta (PI3 Kd); [6]) [µM]	Inhibition values (IC50) PI3Ka (PI3Kalpha (PI3Ka); kinobeads assay, Table 6)	IC50 (PI3 Kbeta (PI3 Kb); [7]) [µM]	IC50 (PI3 Kgamma (PI3 Kg); [8]) [µM]	IC50 (PI3Kalpha (PI3Ka); kinobeads assay, Table 6, read-out: Inhibition values (IC50) PI3Ka) [µM]
							CCNC(=O)Nc1ccc(-c2nc3c(c(N4CCOC[C@@H]4C)n2)CN(C(=O)OC(C)(C)C)CC3)cc1 [Example 2, (S)-tert-butyl 2-(4-(3-ethylureido)phenyl)-4-(3-methylmorpholino)-7,8-dihydropyrido[4,3-d]pyrimidine-6(5H)-carboxylate]	> 10	> 10	0.122	> 10	> 10				
							CCNC(=O)Nc1ccc(-c2nc3c(c(N4CCOCC4)n2)CN(C(=O)OC(C)(C)C)C3)cc1 [Example 63, tert-butyl 2-(4-(3-ethylureido)phenyl)-4-morpholino-5H-pyrrolo[3,4-d]pyrimidine-6(7H)-carboxylate]	> 10	> 10	0.046	1 to 10	1 to 10				
							CCNC(=O)Nc1ccc(-c2nc3c(c(N4CCOC[C@@H]4C)n2)CCN(C(C)C)C3)cc1.O=CO [Example 75, (S)-1-ethyl-3-(4-(7-isopropyl-4-(3-methylmorpholino)-5,6,7,8-tetrahydropyrido[3,4-d]pyrimidin-2-yl)phenyl)urea formate]		> 10	0.082		> 10	D (D >10 μM)	> 10	> 10	
							CCNC(=O)Nc1ccc(-c2nc3c(c(N4CCOCC4)n2)CN(C(=O)NCC)C3)cc1 [Example 79, N-ethyl-2-(4-(3-ethylureido)phenyl)-4-morpholino-5H-pyrrolo[3,4-d]pyrimidine-6(7H)-carboxamide]		1 to 10	0.589		1 to 10		> 10	> 10	1 to 10
							CCNC(=O)Nc1ccc(-c2nc3c(c(N4CCOCC4)n2)CCNC3)cc1 [Example 82, 1-ethyl-3-(4-(4-morpholino-5,6,7,8-tetrahydropyrido[3,4-d]pyrimidin-2-yl)phenyl)urea]		> 10	0.991		> 10	D (D >10 μM)	> 10	> 10	
							CCNC(=O)Nc1ccc(-c2nc3c(c(N4CCOCC4)n2)CCN(C(=O)OC)C3)cc1 [Example 95, methyl 2-(4-(3-ethylureido)phenyl)-4-morpholino-5,6-dihydropyrido[3,4-d]pyrimidine-7(8H)-carboxylate]		> 10	0.218		> 10	D (D >10 μM)	> 10	> 10	
< 0.1	1 to 10	1 to 10	> 10	1 to 10	> 10		C[C@@H]1COCCN1c1nc(-c2ccc(NC(=O)NC3CC3)cc2F)nc2c1CN(C(=O)OC(C)(C)C)C2 [Example 182, (R)-tert-butyl 2-(4-(3-cyclopropylureido)-2-fluorophenyl)-4-(3-methylmorpholino)-5H-pyrrolo[3,4-d]pyrimidine-6(7H)-carboxylate]									
< 0.1		> 10	> 10	1 to 10	> 10	D (D >10 μM)	CC(C)N1Cc2nc(-c3ccc(NC(=O)NCCO)cc3F)nc(N3CCOCC3)c2C1 [Example 184, 1-(3-fluoro-4-(6-isopropyl-4-morpholino-6,7-dihyro-5H-pyrrolo[3,4-d]pyrimidin-2-yl)phenyl)-3-(2-hydroxyethyl)urea]									
